# From patent US5519115A, “Reverse antimicrobial peptides” (priority 1993, dated 1996)
# Read-outs that look alike come from different tables or passages of the source. Ends that are not written are not given here.
# Assays:
# [1] = tested on: maize BMS suspension cells; assay: Whole cell phytotoxicity screening (oxygen consumption); format: cell-based
# Procedure: Oxygen consumed by maize BMS suspension cells were determined as an indication of the relative phytotoxicity of antimicrobial peptides. Black Mexican Sweet (BMS) cell suspension cultures were maintained by transferring 25 mls of cell culture to 25 mls of fresh MSA2D media (4.4 g bottle of Murashige and Skoog basal salt mixture Sigma catalog No. M5524, 100 mg myoinositol, 150 mg L-asparagine, 30 g sucrose, 20 mls of 0.1 mg/ml 2.4-dichlorophenoxy acetic acid stock and 1 ml of vitamin stock consisting of 25 mg/100 ml calcium pantothenate, 50 mg/100 ml pyridoxine, 50 mg/100 ml nicotinic acid, 50 mg/100 ml thiamine, 200 mg/100 ml glycine all added to 1 liter sterile distilled water followed by autoclaving 25 minutes at 121° C.) in a capped sterile 250 ml Erlenmeyer flask 3 days after culture initiation. Four days later 12.5 mls of the cell culture was transferred to 35.5 mls of fresh MSA2D media. Cultures were continuously maintained by alternating 3 and 4 day transfer regimes. The cultures were shaken in low light at 125 RPM at room temperature. For oxygen consumption experiments cells were used one day after transferring to fresh media. Cells were poured into a sterile 50 ml centrifuge tube and allowed to settle by gravity. Spent media was drawn off and 7.8 mls of fresh MSA2D media was added per gram of settled cells. The cell stock solution was placed on a shaker for continued aeration and was used in all assays conducted on that day.
# An oxygen electrode (Hansatech Limited, Kings' Lynn, Norfolk, England) was inspected to insure that no corrosion was present. A saturated KCl solution was then placed in the clean electrode well. A 1 inch square of rolling paper or lens paper was cut and placed over the well so that the edges of the paper soaked up KCl and formed an ionic bridge. A 1 inch square of teflon membrane was cut, being careful not to touch the surface, and placed over the soaked rolling paper. A membrane applicator was used to press an O-ring over the head of the electrode thereby securing paper and membrane across the electrode. The CB-1D control box (Hansatech Limited) was turned on and allowed to warm up approximately one hour before calibration. The CB-1D control box was set at 1X output. A chart recorder was set at 0.05 V input with a chart speed of 3 cm/min. A circulating water bath set at 20° C. was hooked up to the electrode chamber. The entire system was calibrated using air-saturated water obtained by vigorously shaking a wash bottle of distilled water. Using the gain switch, the output was set so that the pen on the chart recorder was at the maximum chart height (900=top). The oxygen concentration of air-saturated water was assumed to be 276 nmole/mL at 20° C. All air was removed from the water in the cuvette by adding 2-3 mg of sodium dithionite. The pen on the chart recorder responded by moving to the bottom of the graph. If the slope of the line was unstable, the membrane and rolling paper were removed and the set-up steps were repeated.
# For a 1 mL assay, 888 uL water and 62.5 uL BMS stock cell suspension were added to the oxygen electrode cuvette. The final concentration of cells used in the assay was approximately 8 mg/mL. The rate of oxygen consumed by the cells was monitored on the chart recorder for 3 minutes. Fifty microliters of peptide was then added to the cuvette using a Hamilton syringe. (Peptide stocks were adjusted to deliver the desired concentration in a 50 uL volume). Oxygen consumption was monitored for 5 minutes after peptide addition. The time period for the complete test was 8 minutes.
# The rate of suppression of oxygen consumption after the addition of a peptide was determined by comparing the slope of the line before the addition of the peptide to the slope of the line at a set time point after addition of the peptide. The rate of oxygen consumption after addition of the peptide was divided by the initial control rate of oxygen consumption and then multiplied by 100. […]
# plant protease [2] = conditions: cited from earlier work
# isolated chloroplasts = assay: Oxygen evolution bioassay, phytotoxicity (isolated chloroplasts); format: cell-based, Spinach (Spinacia oleracea L. var. Melody); conditions: for inhibition of oxygen evolution: 8 uM
# Procedure: The following procedure for the preparation of chloroplasts to use in an oxygen electrode is similar to that of Gupta et al., "Development and Use of Chlorotetracycline Fluorescence as a Measurement Assay of Chloroplast Envelope-Bound Mg^2+, "Plant Physiol. 89, (1989) 753-761. Spinach (Spinacia oleracea L. var. `Melody`) was grown in 1:1 peat/vermiculite potting mix in a growth chamber with a 10 hour light period. The chamber temperature was maintained at 21° C. (day) and 16° C. (night) during the growth period. All plants were used for chloroplast isolation after 6-8 weeks of growth.
# In order to obtain an enriched chloroplast fraction, about 12 g of deribbed spinach leaves were thoroughly washed and surface dried. The leaves were then cut into small pieces, each about 1/2 inch square, and were placed in a small blender jar containing 50 mL of chilled homogenization medium (0.33M sorbitol, 50 mM Hepes-NaOH, pH 6.8, 2mM Na2 EDTA, 1 mM MnCl2, 1 mM MgCl2). The tissue was blended twice for three second intervals on high speed in a blender. The resulting homogenate was filtered through four layers of cheesecloth and two layers of miracloth (Behring Diagnostics, La Jolla, Calif.) into two chilled 30 mL glass centrifuge tubes. The filtered solution was centrifuged for 1.0 minute at 750 g (2,200 RPM) in a JS 13.1 swinging bucket rotor in a Beckman J2-21M centrifuge (Beckman Instruments, Inc., Somerset, N.J.). The supernatant was then decanted and the pellet was gently resuspended by swirling at 0° C. About 15 mL of homogenization medium was added to each tube of chloroplasts before the chloroplasts were layered onto a 40% Percoll gradient (6 mL Percoll, 9 mL homogenization medium, and 0.03 g bovine serum albumin) in a 30 mL glass centrifuge tube. These tubes were centrifuged for 4.0 minutes at 2500 g (4000 RPM) in a JS 13.1 swinging bucket rotor in a Beckman J2-21M centrifuge. The supernatant was removed and the resulting pellet was resuspended in a small amount of homogenization medium (about 500 microliters).
# Plastid concentration was generally expressed on a chlorophyll basis. Chlorophyll was determined by the method of Arnon "Copper Enzymes in Isolated Chloroplasts, Polyphenol Oxidase in Beta Vulgaris," Plant Physiol. 24, (1949) 1-15. About 50 microliters of chloroplast stock suspension was added to 10 mL of 80% acetone and this solution was incubated 5.0 minutes in the dark and then centrifuged for 5.0 minutes at 500 g (1630 RPM) in a Beckman GP centrifuge. The absorbance of the acetone-chloroplast solution was monitored at 645 nm, at 663 nm and at 730 nm. The chlorophyll concentration was then calculated as 10× [(absorbance at 645 nm×20.2)+(absorbance at 663 nm×8.02)--background at 730 nm]. This gave the amount of chlorophyll in micrograms for the original 50 microliters of chloroplasts. The concentration of chloroplasts was then adjusted with homogenization medium so that 50 microliters of suspension contained 26 micrograms of chlorophyll. These chloroplasts were only active for 11/2 to 2 hours and were therefore used immediately.
# An oxygen electrode (Hansatech Instruments Ltd., Kings Lynn, Norfolk, England) was used to measure oxygen evolution from isolated chloroplasts. For a detailed discussion of the method see, D. Walker, "The Use of the Oxygen Electrode and Fluorescence Probes in Simple Measurements of Photosynthesis," supra. A saturated KCl solution was placed in the electrode well and a one-inch square of rolling paper or lens paper was placed in to the electrode well so that it soaked up KCl and formed an ionic bridge. A one-inch square of teflon membrane was then prepared, being careful not to touch its surface, and was placed over the soaked paper. Using the membrane applicator, an O ring was placed over the head of the electrode, thereby securing paper and membrane across the electrode. The CB-1D control box was turned on and the system was allowed to warm up approximately one hour before calibration. […]
# [3] = tested on: extracellular plant proteases; assay: in vitro; conditions: pH 7.4
# Text: In an attempt to determine the sensitivity of peptides to extracellular plant proteases, and to determine the site or sites of processing by these proteases, a system was designed to obtain extracellular fluid from leaves of maize, tobacco, or potato and to use these to test the stability of various peptides.
# Extracellular fluid (ECF) was obtained by cutting interveinal pieces from tobacco leaf after they were rinsed in deionized water. The segments were submerged in water in a vacuum desicator and vacuum was applied for 5 to 10 min. The vacuum was released slowly, the leaves were blotted dry and 4 to 5 pieces were rolled and placed in a 50 mL disposable syringe barrel cut down so as to be able to fit in a swinging bucket centrigue rotor. The syringe barrel was placed in a 50 mL screw cap conical centrifuge tube and centrifuged in a swinging bucket rotor at 600×g for 30 min. The liquid was recovered and centrifuged in a microfuge for 10 min. The supernatant was stored at -80° C. and used in subsequent experiments.
# To test the stability of a peptide to extracellular plant proteases, 10 ug of the peptide (1 mg/mL) was incubated with 10% extracellular fluid in 50 mM Tris HCL buffer, pH 7.4. The peptides tested were prepared or obtained as described in Examples 6, 13, and 14. After incubation at 37° C. for 0, 15, 30, 45 and 60 min the proteases were inactivated by the addition of trifluoroacetic acid (TFA) to 1% final concentration (v/v).
# Peptides were analyzed by reverse phase chromatography on a 2.1×30 mm POROS R/H column (PerSpective Biosystems, Cambridge, Mass.) using a 5 to 35% acetonitrile gradient in 0.1% TFA on a Hewlett-Packard HP1090 high pressure liquid chromatograph (Hewlett Packard, Avondale, Pa.) at 3.5 mL/min.
# plant protease [4] = tested on: plant protease
# [5] = Phytotoxicity (method not given)
# [6] = 10% extracellular fluid from tobacco leaf
substance,measurement,setting,value
"GIGKFLHSAGKFGKAFVGEIMKS [Peptide No. 2, Magainin 1]",Percent Inhibition of Oxygen Consumption Caused by Addition of 4 μM Peptide,[1],52 +/- 6%
same,"phytotoxic effect on whole cells, oxygen consumption (in words)",[1],greater overall phytotoxic effect on whole cells
"GIGKFLHEAKKFGKAFVGEIMNS [Peptide No. 10, [Glu 8] Mag 2]",decrease in the susceptibility to proteolytic degradation,plant protease [2],≥ 50%
"MGIGKFLREAGKFGKAFVGEIMKGIGKFLREAGKFGKAFVGEIMKP [Peptide No. 15, Head-to-tail peptide Nos. 11 and 12***]",inhibition of oxygen evolution,isolated chloroplasts,100%
"GIGKFLHSAKKFGKAFVGEIMNS [Peptide No. 1, Magainin 2]",remaining at 0.25 h,[3]; [6],23%
same,remaining at 0.5 h,[3]; [6],18%
same,remaining at 0.75 h,[3]; [6],5.3%
same,remaining at 1 h,[3]; [6],0.5%
same,Percentage of Area Under the Parent Peak,"[3]; Time 0 min, 10% extracellular fluid, 37° C.",100 Percentage
same,"phytotoxic effect on whole cells, oxygen consumption (in words)",[1]; Table V,much higher level of inhibition of oxygen consumption
"SNMIEGVFAKGFKKASHLFKGIG [Peptide No. 8, Reverse Magainin 2]",Percent Inhibition of Oxygen Consumption Caused by Addition of 4 μM Peptide,[1],16 +/- 12%
same,phytotoxicity effect compared to native Magainin 2 (in words),isolated chloroplasts,extremely low Phytotoxicity effect
"KWKLFKKIEKVGQNIRDGIIKAGPAVAVVGQATQIAK-NH2 [Peptide No. 3, Cecropin A-NH2, reference compound]",inhibition of oxygen evolution,isolated chloroplasts,100%
"GIGKFLHSAKKFGKAFVGEIMNSGGGGGGIGKFLHSAKKFGKAFVGEIMNS [Peptide No. 6, Mag 2 dimer (bridged)]",inhibition of oxygen evolution,isolated chloroplasts,100%
"SWLSKTAKKLENSAKKRISEGIAIAIQGGPR [Peptide No. 4, P1]",susceptibility to proteolysis (in words),plant protease [4],very low
same,"phytotoxic effect on whole cells, oxygen consumption (in words)",[1]; Table V,greater overall phytotoxic effect on whole cells
same,phytotoxicity (in words),[5],very low
"GIGKFLHSAKKFGKAFVGEIMNSGIGKFLHSAKKFGKAFVGEIMNS [Peptide No. 5, (Mag 2)-(Mag 2)]",Percent Inhibition of Oxygen Consumption Caused by Addition of 4 μM Peptide,[1],72 +/- 13%
same,"phytotoxic effect on whole cells, oxygen consumption (in words)",[1],no significantly different effect on phytotoxicity
same,inhibition of oxygen evolution,isolated chloroplasts,100%
"CGIGKFLREAGKFGKAFVGEIMKP [Peptide No. 13, Cys [Arg 7, Glu 8, Pro 23] Mag 1]",inhibition of oxygen evolution,isolated chloroplasts,100%
